Test results as given in a melting point compilation (Tetko et al.; mined from patent text by program, amines drawn as free bases though some values may be those of a salt).

Compared with `CC1(O)OC(=O)C=C1c1ccccc1` (configuration not stated), `C=CCSc1cc(C(=O)O)cc(N)c1-c1ccccc1` is higher in melting point: 105 to 107 °C for the first, 150 °C for the second.

First: CCCc1cc(OCc2ccc(-c3ccccc3-c3nnn(C(c4ccccc4)(c4ccccc4)c4ccccc4)n3)cc2)c(C(=O)OC)c(C)n1
Second: Cc1c(CC2CCc3c(c4ccccc4n3CC3CCCC3)C2=O)ncn1C(c1ccccc1)(c1ccccc1)c1ccccc1 (configuration not stated)
The melting point of the first is lower: 61 to 64 °C for the first, 177 to 179 °C for the second.

First: CC(C)(C)C(=O)Oc1cccc2c1C(=O)c1c(OC(=O)C(C)(C)C)cccc1C2C(=O)c1ccccc1
Second: COc1cc(C(=O)NS(=O)(=O)c2ccccc2C)ccc1Cc1cn(C)c2ccc(CC3CCN(C)C3=O)cc12 (configuration not stated)
The melting point of the first is higher: 191 °C for the first, 115 to 135 °C for the second.

First: Cc1cc(C)c2c(c1)OS(=O)(=O)C(=Cc1ccc(N(C)C)cc1)C2=O
Second: COc1ccc(C(=O)OCc2ccc(C=O)cc2)cc1C(C)(C)C
The melting point of the first is higher: 214 to 217 °C for the first, 75 to 76 °C for the second.

Compared with `Cn1c(COc2ccc(CC3SC(=O)NC3=O)cc2)nc2cncnc21` (configuration not stated), `CCCCOc1c(CNC(=O)OC(C)(C)C)n(CC(C)C)c(=O)c2ccc(-c3nc(C#N)cs3)cc12` is lower in melting point: 244 to 246 °C for the first, 160 to 161 °C for the second.

First: COc1cc(Nc2nc3cccc(-c4ccc(CNC(C)=O)cc4)c3o2)cc(OC)c1OC
Second: NC(=O)CNC(=O)c1cccc(-c2cccc3cc(Cc4cc(F)cc(Cl)c4)sc23)n1
The melting point of the first is higher: 237 to 239 °C for the first, 200 to 201 °C for the second.

First: FC(F)(F)C(F)(F)Oc1ccc(-c2nnco2)cc1
Second: Nc1ccc(-c2cccc(C(F)(F)F)c2)nn1
The melting point of the first is lower: 87 to 89 °C for the first, 138 to 139 °C for the second.

First: Sc1nnc(Cc2ccc(Cl)cc2)o1
Second: O=C(C#Cc1ccc(CCN2CCCC2)cc1)Nc1ccc(Cl)cc1
The melting point of the first is lower: 115 °C for the first, 153 to 154 °C for the second.

First: CN(C)C(=O)Nc1ccc(O)c([N+](=O)[O-])c1
Second: Cc1cc(Cl)ccc1NC(=S)N(C)OCC(=O)O
The melting point of the first is higher: 142 °C for the first, 110 to 113 °C for the second.

First: CCCCCCCCCOc1ccc(Cl)c(C(N)=O)c1F
Second: CCCc1c(OCCCC#CC(=O)O)ccc(C(C)=O)c1O
The melting point of the first is lower: 75 to 77 °C for the first, 115 to 116 °C for the second.

Compared with `COC(=O)c1cnc(CO)n1C(c1ccccc1)c1ccccc1`, `COc1ccc2c(c1)C(CCNC(=O)C(F)(F)F)=C(c1ccccc1)C2` is lower in melting point: 160 °C for the first, 138 to 139 °C for the second.

Compared with `Cc1cc(OS(=O)(=O)C(F)(F)F)cc(=O)n1C`, `O=[N+]([O-])c1ccc2c(c1OS(=O)(=O)C(F)(F)F)CCC2` is lower in melting point: 65 to 67 °C for the first, 44 to 46 °C for the second.

First: CCCC(=O)c1cnc2ccc(O)cc2c1Nc1ccc(O)cc1C
Second: COc1ccc(C(=NOC(C)=O)c2ccc(Cl)cc2)c(O)c1
The melting point of the first is higher: 242 to 244 °C for the first, 167 °C for the second.

First: O=C(O)c1ccc2cn(C3CCCC3)nc2c1
Second: O=C(C=Cc1cccc(Cl)c1Cl)c1ccc(OC2CCCCO2)cc1 (configuration not stated)
The melting point of the first is higher: 190 to 193 °C for the first, 116 to 118 °C for the second.

First: CO/C=C1/C(=O)NC(=O)c2ccc(Br)cc21
Second: O=C1CCN(C(=O)Cl)c2cc(Cl)ccc21
The melting point of the first is higher: 210 to 211 °C for the first, 150 to 153 °C for the second.

Compared with `CCCCC(=O)c1cc2n(c1)CCc1ccccc1C2=O`, `CCCCNC(=O)Oc1ccc2c(N3CCN(CCCC(=O)c4ccc(F)cc4)CC3)noc2c1` is higher in melting point: 135 to 136 °C for the first, 137 to 141 °C for the second.

First: CC(C)Oc1ccc(CCCO)c(Oc2ncc(Cl)cc2Cl)c1
Second: COc1cc(C(C)C)c(Oc2cnc(N)nc2N)cc1-c1ccco1
The melting point of the first is lower: 57 to 59 °C for the first, 199 to 203 °C for the second.

Compared with `CNCCN1CCn2c1nc1ccccc12`, `CCOCCOc1cc(C(C)C)c(NC(=O)CN2CCN(CCCSc3nc4ccccc4o3)CC2)c(C(C)C)c1` is higher in melting point: 60 to 63 °C for the first, 115 to 117 °C for the second.

First: [N-]=[N+]=C(C(=O)CCc1ccc(S(=O)(=O)Cl)cc1)C(=O)CCc1ccc(S(=O)(=O)Cl)cc1
Second: CC(C)(C)c1ccc(S(=O)(=O)NCc2ccc(C(=O)O)cc2)cc1
The melting point of the first is lower: 121 to 122 °C for the first, 290 to 291 °C for the second.

First: CSc1ccc(Cc2sc(NC(C)=O)nc2CCc2ccc(NC(=N)N)cc2)cc1
Second: O=C(NC(Cc1ccc(OCc2ccccc2)cc1)C(=O)O)c1cn2cccc(OCc3ccc(Cl)cc3)c2n1 (configuration not stated)
The melting point of the first is lower: 160 to 161 °C for the first, 210 °C for the second.

First: CC1(C)CCC(C)(C)c2cc(C#CCc3ccc(C(=O)O)cc3)ccc21
Second: CC(C)c1ccc2c(c1)C(=O)N(C)C(c1ccc(C(C)(C)C)cc1)C2 (configuration not stated)
The melting point of the first is higher: 159 to 160 °C for the first, 103 to 106 °C for the second.

Compared with `O=C1N(Cc2ccccn2)c2ccccc2C12COc1ccc3c(c12)OCCO3` (configuration not stated), `O=C(c1ccccc1Cl)c1cc(Cl)ccc1C#CCN1C(=O)c2ccccc2C1=O` is higher in melting point: 132 to 134 °C for the first, 144 to 145 °C for the second.

First: O=C1c2ccccc2CN1C1CCN(c2ccc(Cc3ccccc3)cc2)CC1
Second: Cn1cc(C(=O)NCc2ccc(F)cc2)c(=O)c2cc(CN3CCOCC3)sc21
The melting point of the first is lower: 151 to 155 °C for the first, 214 to 216 °C for the second.

Compared with `O=C(Nc1cccc(S(=O)(=O)N(CCO)CCO)c1)c1cnn2c(C(F)(F)F)cc(-c3ccc(C(F)(F)F)cc3)nc12`, `O=[N+]([O-])c1ccc(Oc2ccc(C(F)(F)F)cc2Cl)nc1Cl` is lower in melting point: 209 °C for the first, 53 to 59 °C for the second.

First: Cc1c(Br)c2c(c(C)c1NC=O)C(c1ccc(C(C)C)cc1)CO2 (configuration not stated)
Second: CC(C)(C)[Si](C)(C)Oc1ccc2c(c1)oc(=O)c1c3ccc(O[Si](C)(C)C(C)(C)C)cc3oc21
The melting point of the first is higher: 151 to 152 °C for the first, 118 to 119 °C for the second.

First: CNC(=C[N+](=O)[O-])NCCSCc1ccccn1
Second: CC(C)(NC(=O)C(CS)Cc1ccccc1)C(=O)O (configuration not stated)
The melting point of the first is lower: 112 to 113 °C for the first, 175 to 176 °C for the second.

First: CCOCc1nc2c(N)nc3cc(Br)ccc3c2n1CC1CCN(S(C)(=O)=O)CC1
Second: COc1ccc2nc3c(cc2c1)c(C#N)nn3C
The melting point of the first is higher: 233 to 234 °C for the first, 190 to 191 °C for the second.

First: CCCC1=C(O)C(C(=O)CC)C(=O)OC1=O (configuration not stated)
Second: CCn1cc(CC(=O)OC)c(O)n1
The melting point of the first is higher: 149 to 150 °C for the first, 72 to 73 °C for the second.

Compared with `Cc1ccc2c(c1)c(=O)c1c(cnn1C)n2CC#N`, `Cc1cccc2c(C#N)cn(C)c12` is lower in melting point: 214 to 219 °C for the first, 116 °C for the second.

`COc1ccc(OC)c(-c2nnc3ccc(Cl)nn23)c1` and `COc1cc(OC)c2c(c1)OC(C)(C)CC2NNc1ncnc2c1ncn2C1OC(CO)C(O)C1O` (configuration not stated) cannot be ordered by melting point: 111 to 112 °C for the first, 111 to 113 °C for the second.

First: COc1ccc(C(O)CNC(C)C)s1 (configuration not stated)
Second: CC(C)CNc1sc(-c2cc[nH]n2)c2c1C(=O)CC(C)(C)C2
The melting point of the first is lower: 81 °C for the first, 208 to 210 °C for the second.

First: CCOC(=O)C(NC(=O)CO)C(=O)OCC
Second: CCOC(=O)c1c(SC)sc2c(F)c(F)c(F)cc2c1=O
The melting point of the first is lower: 74 to 74.5 °C for the first, 113 to 115 °C for the second.

First: O=C(CCl)Nc1ccc(NC(=O)CCl)c2c1C(=O)c1ccccc1C2=O
Second: CN(C)C=C(C#N)C(=O)Nc1ccccc1-n1cccc1
The melting point of the first is higher: 221 °C for the first, 167 to 169 °C for the second.

Compared with `CC(c1ccccc1)n1c(N)c(C#N)c2c1CCCC2` (configuration not stated), `COC(=O)c1cccc(-c2ncc(OCCN3CCOCC3)cn2)c1` is lower in melting point: 129 °C for the first, 89 to 91 °C for the second.

`CCCOc1ccnc2[nH]cc(-c3ccnc(N)n3)c12` and `Cc1cc(NC23N=CN=C2C=NC(N2CCC(C)CC2)=N3)[nH]n1` (configuration not stated) cannot be ordered by melting point: > 210 °C for the first, > 300 °C for the second.

Compared with `CC(C)(C)c1cc(C(=O)c2nccs2)cc(C(C)(C)C)c1O`, `Cc1cc(C(=O)CCl)c(N)cc1Cl` is higher in melting point: 106 to 108 °C for the first, 129 to 130 °C for the second.
